# Measured values reported in ChEMBL document CHEMBL1129361, “Modulators of leukotriene biosynthesis and receptor activation” (J Med Chem, 1996).
# Legend:
# Homo sapiens [1] = assay: Compound was tested for fold shift in LTD4 bronchoconstriction dose response curve following a 400 mg oral dose.; type: functional, Lung
# [2] = target: T1, Cysteinyl leukotriene receptor (Homo sapiens, UniProt Q9Y271+Q9NS75); assay: Binding affinity against Cysteinyl leukotriene D4 receptor; type: protein assay
# T1 sequence (Q9Y271 whole entry): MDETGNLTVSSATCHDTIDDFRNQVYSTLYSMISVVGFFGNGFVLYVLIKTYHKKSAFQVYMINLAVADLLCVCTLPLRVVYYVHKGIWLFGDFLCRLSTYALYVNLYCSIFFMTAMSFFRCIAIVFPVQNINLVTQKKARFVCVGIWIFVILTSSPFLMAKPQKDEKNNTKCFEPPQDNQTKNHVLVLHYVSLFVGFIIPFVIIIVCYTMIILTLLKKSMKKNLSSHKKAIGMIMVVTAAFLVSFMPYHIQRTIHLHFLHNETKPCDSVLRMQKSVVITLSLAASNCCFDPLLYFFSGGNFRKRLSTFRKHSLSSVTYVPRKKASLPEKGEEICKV
# T1 sequence (Q9NS75 whole entry): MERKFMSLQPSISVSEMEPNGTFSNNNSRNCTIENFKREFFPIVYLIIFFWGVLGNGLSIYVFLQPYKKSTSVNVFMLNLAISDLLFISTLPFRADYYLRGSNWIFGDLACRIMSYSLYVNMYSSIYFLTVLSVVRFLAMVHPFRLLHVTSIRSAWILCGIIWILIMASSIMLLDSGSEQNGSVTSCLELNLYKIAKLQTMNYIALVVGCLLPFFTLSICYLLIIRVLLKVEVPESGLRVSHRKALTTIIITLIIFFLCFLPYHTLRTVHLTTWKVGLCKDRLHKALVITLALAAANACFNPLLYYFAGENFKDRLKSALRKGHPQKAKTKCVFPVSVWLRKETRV
# Homo sapiens [3] = organism: Homo sapiens; assay: Compound was tested for fold shift in LTD4 dose response curve 2 hour following 100 microg aerosol dose in normal subjects.; type: functional
# Homo sapiens [4] = organism: Homo sapiens; assay: Compound was tested for fold shift in LTD4 dose response curve following 800 microg aerosol dose in mild asthmatics.; type: functional
# Homo sapiens [5] = organism: Homo sapiens; assay: Fold shift in LTD4 dose response curve 3-5 hr after 5 days 450 mg bid; type: functional
# Homo sapiens [6] = organism: Homo sapiens; assay: Fold shift in LTD4 dose response curve […] after 5 days of 450 mg bid; type: functional
# Homo sapiens [7] = assay: Fold shift in LTD4 dose response curve 24 hr following 450 mg oral dose; type: functional
# Mus musculus [8] = assay: Compound was tested in vivo inhibitory activity against AA induced ear edema and MPO release.; type: functional
# Homo sapiens [9] = organism: Homo sapiens; assay: Compound was tested in vitro inhibitory activity against […] induced chemotaxis; type: functional, organism-based
# Mus musculus [10] = assay: Compound was tested in vivo inhibitory activity against AA induced ear edema and MPO release (orally).; type: functional; details: po
# Homo sapiens [11] = organism: Homo sapiens; assay: Compound was tested in vitro inhibitory activity against […] induced CD11 up-regulation.; type: functional, organism-based
# Homo sapiens [12] = organism: Homo sapiens; assay: Compound was tested in vitro inhibitory activity against […] induced aggregation.; type: functional, organism-based
# Rattus norvegicus [13] = assay: Compound was tested in vivo inhibitory activity against rat neutropenia at 18 h.; type: functional
# Homo sapiens [14] = assay: Compound was tested in vivo inhibitory activity against CD11b up-regulation at 4 hours in normal volunteers.; type: functional
# [15] = target: T2, Leukotriene B4 receptor 1 (Homo sapiens, UniProt Q15722); assay: Compound was tested for inhibitory activity against Leukotriene B4 receptor binding
# Homo sapiens [16] = organism: Homo sapiens; assay: Compound was tested in vitro inhibitory activity against […] induced Ca mobilization.; type: functional, organism-based
# Rattus norvegicus [17] = assay: Compound was tested in vivo inhibitory activity against rat neutropenia at 4h.; type: functional
# [18] = Compound was determined in vivo in squirrel monkey antigen bronchospasm; details: Saimiri sciureus, Bronchiole
# [19] = Compound was tested for in vivo inhibition against antigen bronchospasm.; type: functional; details: Rattus norvegicus, Bronchiole
# Rattus norvegicus [20] = organism: Rattus norvegicus; assay: Compound was tested for in vitro inhibition using FLAP binding assay
# Homo sapiens [21] = organism: Homo sapiens; assay: Compound were tested for in vitro inhibition against human whole blood.
# RBL-1 = assay: Compound were tested for in vitro inhibition against broken RBL-1.; type: functional; details: Rattus norvegicus
# Homo sapiens [22] = organism: Homo sapiens; assay: Compound was tested in vitro inhibitory activity against LTB4 induced Ca mobilization; type: functional
# Cavia porcellus [23] = assay: Compound was tested in vivo inhibitory activity against LTB4 induced bronchoconstriction (intravenous); type: functional
# [24] = target: T2, Leukotriene B4 receptor 1; assay: Compound was tested for inhibitory activity against human neutrophil LTB4 receptor binding
# Cavia porcellus [25] = assay: Compound was tested in vivo inhibitory activity against LTB4 induced bronchoconstriction (orally); type: functional; details: po
# Homo sapiens [26] = organism: Homo sapiens; assay: Compound was tested in vitro inhibitory activity against human neutrophil CD11b/CD18.; type: functional
# [27] = target: T2, Leukotriene B4 receptor 1; assay: Compound was tested for binding affinity against human neutrophil LTB4 (leukotriene) receptor
# Mus musculus [28] = assay: Compound was tested in vivo inhibitory activity against AA induced ear edema(orally); type: functional; details: po
# Homo sapiens [29] = organism: Homo sapiens; assay: Compound was tested in vitro inhibitory activity against LTB4 induced neutrophil degranulation; type: functional
# Homo sapiens [30] = organism: Homo sapiens; assay: Compound was tested in vitro inhibitory activity against 12-R-HETE induced Ca mobilization; type: functional
# Mus musculus [31] = assay: Compound was tested in vivo inhibitory activity against PMA induced ear edema; type: functional
# Homo sapiens [32] = organism: Homo sapiens; assay: Compound was tested in vitro for inhibitory activity in LTB4 induced Ca mobilization.; type: functional, organism-based
# Mus musculus [33] = assay: Compound was tested in vivo inhibitory activity against AA induced ear edema (topically); type: functional
# Cavia porcellus [34] = assay: Compound was tested in vivo for LTB4 induced bronchoconstriction in guinea pig (2 hr pretreatment).; type: functional
# Cavia porcellus [35] = assay: Compound was tested in vivo inhibitory activity against LTB4 induced bronchoconstriction in guinea pig(orally) (20 hr pretreatment); type: functional; details: po
# Cavia porcellus [36] = organism: Cavia porcellus; assay: Compound was tested in vitro for inhibitory activity against guinea pig neutrophil aggregation; type: functional
# Oryctolagus cuniculus = assay: Compound was tested in vivo inhibitory activity against LTB4 induced neutropenia in rabbit (intravenous); type: functional
# Homo sapiens [37] = organism: Homo sapiens; assay: Compound was tested in vitro for inhibitory activity against human neutrophil aggregation.; type: functional
# Homo sapiens [38] = organism: Homo sapiens; assay: Compound was tested in vitro for inhibitory activity against human neutrophil chemotaxis.; type: functional
# T2 sequence (Q15722 whole entry): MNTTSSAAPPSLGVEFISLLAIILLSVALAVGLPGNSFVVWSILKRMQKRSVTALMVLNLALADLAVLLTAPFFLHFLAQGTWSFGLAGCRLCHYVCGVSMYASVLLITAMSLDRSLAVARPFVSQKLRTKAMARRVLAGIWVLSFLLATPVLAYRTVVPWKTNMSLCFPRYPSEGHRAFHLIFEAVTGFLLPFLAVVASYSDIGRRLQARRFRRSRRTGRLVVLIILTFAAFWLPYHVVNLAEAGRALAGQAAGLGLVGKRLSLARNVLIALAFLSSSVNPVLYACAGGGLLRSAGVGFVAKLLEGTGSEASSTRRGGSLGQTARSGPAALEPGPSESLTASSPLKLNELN
smiles,measurement,setting,value
CCCc1c(OCCCCc2nnn[nH]2)ccc(C(C)=O)c1O [TOMELUKAST],Activity,Homo sapiens [1],4.6
O=C(O)CCS[C@H](c1ccccc1CCCCCCCCc1ccccc1)[C@@H](O)C(=O)O [POBILUKAST],Ki,[2],5 nM
same,Activity,Homo sapiens [3],10
same,Activity,Homo sapiens [4],3
O=C(Nc1cccc2c(=O)cc(-c3nnn[nH]3)oc12)c1ccc(OCCCCc2ccccc2)cc1,Activity,Homo sapiens [5],28
same,Activity,Homo sapiens [6],26
same,Activity,Homo sapiens [7],7
COc1cc(C(=O)N(C(C)C)C(C)C)ccc1OCCCCCOc1ccc(C(=N)N)cc1 [MOXILUBANT],ED50,Mus musculus [8],1.4 mg/kg
same,IC50,Homo sapiens [9],2.4 nM
same,ED50,Mus musculus [10],1.8 mg/kg
same,IC50,Homo sapiens [11],0.3 nM
same,IC50,Homo sapiens [12],0.1 nM
same,ED50,Rattus norvegicus [13],11 mg/kg
same,ED100,Homo sapiens [14],300 mg
same,IC50,[15],4 nM
same,IC50,Homo sapiens [16],2 nM
same,ED50,Rattus norvegicus [17],4 mg/kg
CC(C)(C)Sc1c(CC(C)(C)C(=O)[O-])n(Cc2ccc(Cl)cc2)c2ccc(OCc3ccc4ccccc4n3)cc12.[Na+] [QUIFLAPON SODIUM],ED50,[18],0.3 mg/kg
same,ED50,[19],0.16 mg/kg
same,IC50,Rattus norvegicus [20],1.6 nM
same,IC50,Homo sapiens [21],510 nM
same,T1/2,phase 1 oral half life,6 h
same,IC50,RBL-1,6 nM
CCCc1c(OCCCOc2cc(O)c(-c3ccc(F)cc3)cc2CC)cccc1Oc1ccccc1C(=O)O [ETALOCIB],IC50,Homo sapiens [22],20 nM
same,ED50,Cavia porcellus [23],0.04 mg/kg
same,Ki,[24],25 nM
same,ED50,Cavia porcellus [25],0.4 mg/kg
same,IC50,Homo sapiens [26],3.9 nM
O=C(O)/C=C/c1nc(CSc2c(Cl)cccc2Cl)ccc1OCCc1ccccc1 [TICOLUBANT],Ki,[27],0.8 nM
same,ED50,Mus musculus [28],19 mg/kg
same,IC50,Homo sapiens [29],117 nM
same,IC50,Homo sapiens [30],1.3 nM
same,ED50,Mus musculus [31],114 µg
same,IC50,Homo sapiens [32],6.6 nM
same,ED50,Mus musculus [33],20 µg
CCCc1c(OCCCCCCc2cccc(OCCCCCC(=O)O)c2CCC(=O)O)ccc2c1OCCC2=O,ED50,Cavia porcellus [34],< 0.1 mg/kg
same,ED50,Cavia porcellus [35],< 1 mg/kg
COc1ccc(/C=C/CCCCOc2ccc(C(=O)c3cccc(C(=O)O)c3)cc2CCC(=O)O)cc1,IC50,Cavia porcellus [36],74 nM
same,ED50,Oryctolagus cuniculus,3 mg/kg
same,IC50,Homo sapiens [37],100 nM
same,IC50,Homo sapiens [38],6 nM
